The source of these data is paper PMC5683375, “Vasculotide reduces pulmonary hyperpermeability in experimental pneumococcal pneumonia” (Critical Care, 2017).

Entries after “also recorded” stand apart in the source; their conditions may differ. Where two headings read alike, the source gives them in different places.

One series has as its target T1, mouse Tie2Fc receptor (Mus musculus, UniProt Q02858).
T1 construct: Fc (immunoglobulin Fc fusion partner); purchased R&D Systems
The experiment in a line: Tryptophan fluorescence spectroscopy, saturation binding of VT to mouse Tie2Fc. How it is done:
Binding studies were carried out in 96 well plates (Brand-plates pureGrade reference 781607; BRAND GMBH + CO KG, Wertheim, Germany). Mouse Tie2Fc receptor and human immunoglobulin G (IgG) Fc were obtained from R&D Systems (Minneapolis, MN, USA). Dilutions were prepared in HyClone™ Dulbecco’s PBS (GE Healthcare Life Sciences, Mississauga, ON, Canada). The saturation binding curve was prepared with all ligand dilutions and receptors as 2× concentrations. Equal volumes of ligand and receptor were added to generate a final 1× concentration (500 nM Tie2Fc final concentration). Spectroscopic studies were performed on a SpectraMax M2 fluorometer (Molecular Devices, Sunnyvale, CA, USA). Measurements were taken at an excitation wavelength of 295 nm. Emission scans were set from 360 to 450 nm.
Saturation binding data (Fig. 1a–c) are presented as mean ± SEM and were calculated using normalized one-site specific binding and nonlinear regression. For the Tie2 phosphorylation analysis (Fig. 1d), one-way analysis of variance (with Dunnett’s post hoc multiple comparisons test) was used to compare treatment groups with the vehicle-treated group. All other experimental data are expressed as mean, mean + SEM, or mean ± SEM. Groups were compared using the Mann-Whitney U test followed by the Bonferroni-Holm correction, where indicated. p Values < 0.05 were considered significant. Analyses were performed using Prism version 6.00 software (GraphPad Software, La Jolla, CA, USA).

The subject of series [1] is Streptococcus pneumoniae-infected mice. In words: Lung histology (edema formation, lung injury) in Streptococcus pneumoniae-infected mice. The series is classed as in vivo, mouse (C57BL/6 N). Here is the method:
Identical experiments were performed separately for histological analyses of the lungs. Mice were anesthetized 24 h or 48 h p.i. […] After ligation of the trachea, mouse lungs were removed and immediately immersion-fixed in 4% buffered formalin, embedded in paraffin, cut into 2-μm-thick sections, and stained with hematoxylin and eosin as described elsewhere. The degree of edema formation was assessed semiquantitatively (0 = no edema, 1 = minimal edema, 2 = mild edema, 3 = moderate edema, 4 = severe edema). Three evenly distributed sections per lung were microscopically evaluated to assess edema formation.

In a further series the test system is mouse lungs. In words: Isolated perfused and ventilated mouse lung, PLY-induced permeability (ex vivo). Further details: species or system mouse (C57BL/6 N). As to conditions: VT 50 or 100 ng/ml, 15 minutes before PLY 1.4 μg/ml, BAL 30 minutes after PLY, HSA 0.04% in perfusate, n = 6-8. How it is done:
Mouse lungs were prepared as described previously. Briefly, anesthetized mice were tracheotomized and ventilated. After sternotomy and cannulation of the left atrium and pulmonary artery, lungs were perfused with 37 °C sterile Krebs-Henseleit hydroxyethyl-amylopectin buffer (1 ml/minute) and ventilated by negative pressure (Pexp −4.5, Pins −9.0 cmH2O) in a humidified chamber. After a 20-minute steady state, continuous infusion of VT (50 or 100 ng/ml) or PBS was commenced. Five minutes later, human serum albumin (HSA) was admixed to the perfusate (0.04%) for permeability quantification. Ten minutes thereafter, 1.4 μg/ml PLY was infused into the pulmonary artery for 1 minute. Bronchoalveolar lavage (BAL) was performed 30 minutes after PLY application, and HSA concentration was measured in bronchoalveolar fluid (BALF).

The test system of series [2] is Streptococcus pneumoniae-infected mice. The experiment in a line: BALF leukocyte recruitment (FACS) in Streptococcus pneumoniae-infected mice. As to conditions: VT 500 ng i.v., 24 h and 48 h p.i., n = 8.
Experimental: (§1) For all experiments, female C57BL/6 N mice (8 to 10 weeks old, weighing 18 to 20 g; Charles River Laboratories, Sulzfeld, Germany) were used. Animals were housed under specific pathogen-free conditions under a 12–h/12-h light/dark cycle with free access to food and water.
(§2) Mice were anesthetized with ketamine (80 mg/kg) and xylazine (25 mg/kg) and transnasally inoculated with 5 × 10^6 colony-forming units (CFU) of S. pneumoniae (NCTC7978) in 20 μl of sterile PBS as described before [35]. Sham-infected control mice received 20 μl of sterile PBS. After 22 h, 34 h, and 46 h, body weight and rectal temperature were measured, and different dosages of VT (100, 200, or 500 ng in 100 μl of PBS) or PBS were intravenously injected into the tail vein. Twenty-four or forty-eight hours postinfection (p.i.), mice were anesthetized (160 mg/kg ketamine and 75 mg/kg xylazine) and exsanguinated. […] Subsequently, lungs were flushed, and BAL was performed. To determine permeability, HSA (1 mg/75 μl) was intravenously infused 1 h before lung preparation, and the BALF/plasma ratio was calculated as described elsewhere [35]. […] Cytokines from BALF were measured with a multiplex assay (ProcartaPlex; eBioscience), and plasma levels of interleukin (IL)-6 (BD Biosciences) and KC (keratinocyte chemoattractant; R&D Systems) were quantified by ELISA.
For series [3] the test system is unchanged. In words: Plasma levels of IL-6 and KC (ELISA) in Streptococcus pneumoniae-infected mice. As to conditions: VT 500 ng i.v., n = 8. Background: In an ELISA, binding on a coated surface is turned into a signal by an enzyme label.
Experimental: as §1, §2
For series [4], the system named is acute skin ionizing radiation in mice. To be noted: cited from earlier work.
The test system of a further series is Streptococcus pneumoniae. The experiment in a line: Bacterial growth in vitro (optical density). The series is classed as cell-based, Streptococcus pneumoniae serotype 3 (NCTC7978). As to conditions: VT 5 µg/ml, log-phase culture, THY media, 37°C, 5% CO2; OD every 30 min for 5 hours; preliminary experiment. How it is done: experiment, we investigated if Vasculotide (VT) has a direct effect on the bacterial growth of Streptococcus pneumoniae. Capsulated S. pneumoniae (S. pn.) serotype 3 (NCTC7978) was cultured on Columbia blood agar + 5% sheep blood for 8 h. Single colonies were transferred into THY media to yield OD600 = 0.03-0.04. Liquid cultures were incubated at 37°C and 5% CO2 for 2.5-4 h until the bacteria reached a phase of logarithmic growth (OD600 = 0.3-0.4).
30 min later, log-phase bacterial cultures were treated with VT (5 µg/ml) or PBS. Optical density was measured every 30 min for further 5 hours. Individual time-proliferation curves

In another series the test system is acute kidney injury. Further details: method as in PMID 26911791. As to conditions: cited from earlier work.
For series [5], the system named is murine lung endothelial cells (mLEC). In words: Transcellular electrical resistance (ECIS) of murine lung endothelial cells. To be noted: VT 2, 10, 50 ng/ml, 30 minutes pretreatment; PLY 0.75 μg/ml, 3 h; n = 4-7.
Experimental: Briefly, mice were killed by an overdose of ketamine/xylazine. Lungs of four mice were pooled, minced, and digested by dispase (20 ml, 5 U/ml; BD Biosciences, Heidelberg, Germany) and DNase (20 ml, 0.5 mg/ml; AppliChem GmbH, Darmstadt, Germany). The homogenate was filtered, collected by centrifugation (300 × g), and washed twice, and the resulting cell suspension was incubated with antimouse VE-cadherin antibody (rat antimouse CD 144; BD Pharmingen, San Diego, CA, USA)-coated magnetic beads (sheep antirat IgG DynaBeads; Invitrogen GmbH, Karlsruhe, Germany) for positive isolation with the DynaMag-Spin magnet system (Invitrogen). The isolated cells were resuspended in Endothelial Cell Growth Medium MV2 (PromoCell), seeded onto fibronectin-coated (Sigma-Aldrich) culture dishes (diameter 35 mm), and grown to a confluent monolayer in 3–4 days. Then, cells were split after trypsinization [37], seeded and grown to confluence on fibronectin-coated evaporated gold microelectrodes (eight-well array with ten electrodes per well; ibidi GmbH, Martinsried, Germany) connected to an electric cell-substrate impedance sensing (ECIS) system (Applied Biophysics, Troy, NY, USA) [38] for continuous monitoring of transcellular electrical resistance (TER). Cells were pretreated with VT (2, 10, and 50 ng/ml) or PBS for 30 minutes and then stimulated with PLY (0.75 μg/ml) or PBS for 3 h.
The test system of the next series is hPMVEC. Details: method as in PMID 21421750. To be noted: cited from earlier work.
Series [6] has as its system Streptococcus pneumoniae-infected mice. In words: BALF cytokines (multiplex assay) in Streptococcus pneumoniae-infected mice. As to conditions: VT 500 ng i.v., n = 8.
Experimental: as §1, §2

T1 sequence (Q02858 with tags, fused parts or gaps limits assumed): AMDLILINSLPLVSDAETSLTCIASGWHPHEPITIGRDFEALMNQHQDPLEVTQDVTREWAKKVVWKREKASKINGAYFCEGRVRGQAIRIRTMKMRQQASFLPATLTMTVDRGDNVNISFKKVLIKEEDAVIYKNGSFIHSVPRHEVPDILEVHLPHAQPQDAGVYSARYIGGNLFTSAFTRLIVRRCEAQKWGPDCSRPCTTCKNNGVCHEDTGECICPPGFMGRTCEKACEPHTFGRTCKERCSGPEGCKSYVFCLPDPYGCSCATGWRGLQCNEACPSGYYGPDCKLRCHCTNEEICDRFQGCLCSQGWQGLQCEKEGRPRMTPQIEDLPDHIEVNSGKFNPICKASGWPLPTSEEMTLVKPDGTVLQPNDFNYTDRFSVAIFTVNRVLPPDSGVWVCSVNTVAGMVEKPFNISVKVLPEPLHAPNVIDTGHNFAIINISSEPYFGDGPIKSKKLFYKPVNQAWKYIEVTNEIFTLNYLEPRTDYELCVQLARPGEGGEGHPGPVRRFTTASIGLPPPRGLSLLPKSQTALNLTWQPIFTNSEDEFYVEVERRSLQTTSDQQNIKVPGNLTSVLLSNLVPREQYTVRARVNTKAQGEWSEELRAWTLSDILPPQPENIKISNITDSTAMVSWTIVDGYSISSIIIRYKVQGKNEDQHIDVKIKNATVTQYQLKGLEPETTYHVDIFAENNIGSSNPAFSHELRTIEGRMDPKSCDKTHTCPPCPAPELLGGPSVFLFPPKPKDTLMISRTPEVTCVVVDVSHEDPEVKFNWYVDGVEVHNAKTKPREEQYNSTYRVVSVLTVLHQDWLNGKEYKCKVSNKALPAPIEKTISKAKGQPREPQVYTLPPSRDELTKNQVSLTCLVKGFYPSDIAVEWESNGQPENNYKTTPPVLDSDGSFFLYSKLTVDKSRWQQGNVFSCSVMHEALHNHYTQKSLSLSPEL

Vasculotide [VT]: at mouse Tie2Fc receptor (500 nM Tie2Fc), the “saturability of fluorescence intensity with mouse Tie2Fc” value is “saturable”. In addition, the “intrinsic fluorescence intensity / binding with mouse Tie2Fc” value on mouse Tie2Fc receptor (500 nM Tie2Fc, excitation 295 nm) is on record as “dose-dependent binding; also recorded: dose-dependent increase in intrinsic fluorescence intensity”. Also, the Kd on mouse Tie2Fc receptor (95% confidence interval, 500 nM Tie2Fc, one-site specific binding, read-out: 95% CI of the dissociation constant, mouse Tie2Fc) is 2.92 to 67 nM; on mouse Tie2Fc receptor (tryptophan fluorescence, excitation 295 nm, emission 360-450 nm, 500 nM Tie2Fc, PBS, normalized one-site specific binding, nonlinear regression, read-out: dissociation constant of the normalized specific binding of VT to mouse Tie2Fc), 35 nM. The “dissociation constant, in words” value at mouse Tie2Fc receptor (murine Tie2 receptor, discussion) is listed as “in the low nanomolar range”. Further, the “lung injury (histology)” value in series [1] (VT 500 ng i.v., 24 h and 48 h p.i., n = 3-4, vs PBS) is “reduced lung injury”. Further, the “perivascular edema formation, 24 h p.i.” value in [1] (VT 500 ng i.v., 24 h p.i., n = 3-4, vs PBS) is recorded as “considerably reduced”. Further, the “neutrophil infiltration of perivascular spaces, 48 h p.i.” value in series [1] (VT 500 ng i.v., 48 h p.i., n = 3-4) was “without differences between the VT-treated and untreated infected groups”. Besides, in series [1] (VT 500 ng i.v., 48 h p.i., n = 3-4, vs PBS), the “alveolar edema formation, 48 h p.i.” value is listed as “diminished; also recorded: almost completely abolished (three of four mice); also recorded: nearly devoid of the additional massive alveolar edema formation”. In series [1] (VT 500 ng i.v., 48 h p.i., n = 3-4, vs untreated (PBS)), the “perivascular edema, 48 h p.i.” value is reported as “less perivascular edema than the untreated group”. Further, in series [1] (sham-infected groups, VT 500 ng i.v. or PBS, 24 h and 48 h p.i.), the “edema or other pathological changes in perivascular spaces, sham-infected” value is recorded as “no edema formation or other pathological changes”. In the series on mouse lungs, the “PLY-induced lung hyperpermeability (HSA in BALF)” value is “decreased PLY-induced pulmonary permeability; also recorded: significantly decreased hyperpermeability of mouse lungs; also recorded: dose-dependently decreased hyperpermeability of mouse lungs”. For the same substance, the “pulmonary leukocyte recruitment (BALF)” value in series [2] was “did not significantly reduce; also recorded: not significantly affected; also recorded: not significantly reduced”. Moreover, the “IL-6 and KC plasma levels, trend” value in series [3] (24 h and 48 h p.i.) is recorded as “slightly decreased by trend”. Further, the “IL-6 plasma level, 24 h p.i.” value in [3] (24 h p.i.) is on record as “significantly reduced”. The “IL-6 plasma level, 48 h p.i.” value in series [3] (48 h p.i.) is on record as “did not differ”. In addition, in series [4], the “acute skin ionizing radiation” value is on record as “protective effect”. Also, in the series on Streptococcus pneumoniae, the “direct antimicrobial activity / bacterial growth” value is recorded as “did not affect bacterial growth in vitro; also recorded: failed to show a direct antimicrobial activity”. Moreover, the “barrier disruption in acute kidney injury” value with acute kidney injury was “protective effect; also recorded: diminish barrier disruption”. For the same substance, the “PLY-induced TER decrease” value in series [5] is listed as “attenuated the PLY-induced TER decrease in a dose-dependent manner”. Besides, the “protection of endothelial cells from LPS-induced disruption” value in the series on hPMVEC is reported as “protects hPMVEC after LPS stimulation; also recorded: protect endothelial cells from lipopolysaccharide (LPS)-induced disruption”. Besides, the “BALF cytokine concentrations (except IL-12p40)” value in series [6] (24 h and 48 h p.i.) is reported as “not significantly affected; also recorded: not significantly reduced”. The “IL-12p40 levels in BALF, 48 h p.i.” value in series [6] (48 h p.i.) was “reduced; also recorded: decreased”.
